Measured values: BindingDB's records for doi:10.1016/j.chembiol.2008.07.015 (Duke University Medical Center, 2008)

Legend:
Experiment in all cases: BP Incorporation Assay
Details in all cases: 37 °C
[1] = target: Protein kinase C alpha type/glutamine gamma-glutamyltransferase 2 (Homo sapiens, UniProt P17252+P21980)
Description: (§1) In order to eliminated fluorescence interference, chemicals were subjected to a secondary screening using colorimetric BP incorporation assay. TGase/TGMS activity was determined by quantifying the incorporation of BP into N,N'-dimethylcasein in a microtiter plate.

[2] = target: T1, Protein-glutamine gamma-glutamyltransferase 2 (Homo sapiens, UniProt P21980)
T1 sequence (P21980 whole entry): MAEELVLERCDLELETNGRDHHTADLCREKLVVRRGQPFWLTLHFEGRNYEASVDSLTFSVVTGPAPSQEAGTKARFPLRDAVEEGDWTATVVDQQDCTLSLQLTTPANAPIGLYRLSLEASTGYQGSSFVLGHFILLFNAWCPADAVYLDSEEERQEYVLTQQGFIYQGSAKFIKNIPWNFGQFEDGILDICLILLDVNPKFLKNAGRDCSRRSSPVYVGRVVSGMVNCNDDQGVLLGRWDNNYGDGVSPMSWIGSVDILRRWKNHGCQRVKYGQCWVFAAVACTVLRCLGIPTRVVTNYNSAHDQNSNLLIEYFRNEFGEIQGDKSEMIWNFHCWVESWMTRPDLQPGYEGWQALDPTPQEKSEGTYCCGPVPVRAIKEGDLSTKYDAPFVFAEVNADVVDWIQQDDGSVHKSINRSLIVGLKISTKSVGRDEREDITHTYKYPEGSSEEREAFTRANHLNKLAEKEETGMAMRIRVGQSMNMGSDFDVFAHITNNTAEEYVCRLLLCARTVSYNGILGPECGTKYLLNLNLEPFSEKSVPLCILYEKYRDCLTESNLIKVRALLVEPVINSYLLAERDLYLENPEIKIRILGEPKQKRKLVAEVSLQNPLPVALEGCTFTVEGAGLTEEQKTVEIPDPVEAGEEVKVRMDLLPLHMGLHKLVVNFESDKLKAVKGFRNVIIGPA
Description: as §1

[3] = target: Protein-glutamine gamma-glutamyltransferase 2/Receptor protein-tyrosine kinase (Homo sapiens, UniProt P21980+Q504U8)
Chain of Protein-glutamine gamma-glutamyltransferase 2/Receptor protein-tyrosine kinase (Q504U8 whole entry, one chain of several): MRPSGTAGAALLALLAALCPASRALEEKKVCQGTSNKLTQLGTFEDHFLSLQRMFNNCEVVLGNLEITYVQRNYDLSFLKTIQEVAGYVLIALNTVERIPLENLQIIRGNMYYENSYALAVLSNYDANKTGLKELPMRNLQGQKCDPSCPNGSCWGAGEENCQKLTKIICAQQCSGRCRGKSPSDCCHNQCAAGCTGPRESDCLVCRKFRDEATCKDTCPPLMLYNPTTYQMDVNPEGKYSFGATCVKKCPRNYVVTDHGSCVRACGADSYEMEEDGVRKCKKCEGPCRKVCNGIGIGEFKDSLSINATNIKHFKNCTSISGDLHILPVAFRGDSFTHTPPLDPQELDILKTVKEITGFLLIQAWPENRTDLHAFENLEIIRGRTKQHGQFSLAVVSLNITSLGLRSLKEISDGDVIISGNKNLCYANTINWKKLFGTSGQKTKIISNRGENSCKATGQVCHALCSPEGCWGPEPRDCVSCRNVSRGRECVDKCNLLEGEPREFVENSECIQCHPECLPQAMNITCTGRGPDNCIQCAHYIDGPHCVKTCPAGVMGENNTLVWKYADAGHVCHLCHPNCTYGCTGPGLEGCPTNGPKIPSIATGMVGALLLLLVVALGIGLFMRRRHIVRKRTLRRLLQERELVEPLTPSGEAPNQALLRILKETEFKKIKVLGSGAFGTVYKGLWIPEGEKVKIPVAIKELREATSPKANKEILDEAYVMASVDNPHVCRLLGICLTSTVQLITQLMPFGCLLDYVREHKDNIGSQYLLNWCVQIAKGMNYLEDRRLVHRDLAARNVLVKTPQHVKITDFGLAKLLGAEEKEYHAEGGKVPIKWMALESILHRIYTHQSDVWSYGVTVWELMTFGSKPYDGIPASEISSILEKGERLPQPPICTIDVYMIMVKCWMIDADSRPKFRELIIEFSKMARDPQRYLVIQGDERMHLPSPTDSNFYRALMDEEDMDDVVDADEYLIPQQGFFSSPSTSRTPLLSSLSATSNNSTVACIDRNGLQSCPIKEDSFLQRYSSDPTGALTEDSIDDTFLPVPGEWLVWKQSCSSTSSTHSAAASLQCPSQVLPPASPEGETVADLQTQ
Description: as §1

SMILES | IC50 [1] | also measured
CC(=O)c1c(O)c(C)c(O)c(Cc2c(O)c3c(c(C(=O)C=Cc4ccccc4)c2O)OC(C)(C)C=C3)c1O [(E)-1-(6-(3-acetyl-2,4,6-trihydroxy-5-methylbenzyl)-5,7-dihydroxy-2,2-dimethyl-2H-chromen-8-yl)-3-phenylprop-2-en-1-one] | 20 µM | 
O=C1Nc2ccc(I)cc2/C1=C/c1cc(Br)c(O)c(Br)c1 [G6416 (GW5074)] | 15 µM | 
CC1=CC(=O)c2ccccc2C1=O [Vitamin K3] |  | IC50 [2]: 2.2 µM
N#C/C(=C\c1ccc(O)c(O)c1)C(N)=S [alpha-Cyano-(3,4-dihydroxy)thiocinnamide] |  | IC50 [3]: 3 µM
